Consider four compounds from PMC12358994, “Proline Homologation in Melanostatin Neuropeptide: Discovery of Potent Modulators of the Dopamine D2 Receptors” (ACS Medicinal Chemistry Letters, 2025).

Peptide text beside a SMILES is read from it.

Series [1] deals with differentiated SH-SY5Y neuronal cells. Description: MTT reduction assay in differentiated SH-SY5Y cells. The class given is cell-based, human. As to conditions: 125 μM, 48 h; positive control for cytotoxicity. The method, then: (§1) Following a protocol established in our research group, , these compounds were tested at 100 μM concentration using the 3-(4,5-dimethylthiazol-2-yl)-2,5-diphenyltetrazolium bromide (MTT) reduction and the neutral red (NR) uptake assays.
(§2) 5 Neurotoxic effects of the synthesized compounds were examined via MTT reduction (A) and NR uptake (B) assays in differentiated SH-SY5Y neuronal cells. Cells were incubated for 48 h with 1, 9, MIF-1 (100 μM), or 6-OHDA (125 μM). Compounds were solubilized in phosphate-buffered saline (PBS) solution. Results are reported as a percentage relative to the control (PBS) and shown as mean ± standard deviation. Data were collected from 16 to 36 wells across 9 independent experiments for the MTT reduction assay and from 12 wells and 3 independent experiments for the NR uptake assay. Statistical analyses were performed using the analysis of variance (ANOVA) test, followed by Tukey’s post hoc test (*p < 0.05 and ****p < 0.0001 vs control).
(§3) 4. Cytotoxicity in Human Neuronal SH-SY5Y Cells. The SH-SY5Y cell line was sourced from Sigma-Aldrich (Taufkirchen, Germany). DMEM medium [DMEM (1x) + GlutaMAX], DMEM/F-12, and Fetal Bovine Serum (FBS) were purchased from Gibco and Alfagene (Carcavelos, Portugal). Penicillin and Streptomycin were obtained from Biotecnómica (Porto, Portugal). Phosphate-buffered solution (PBS) without calcium and magnesium was acquired from Biochrom (Berlin, Germany). Trypsin/EDTA solution, 0.4% (w/v) trypan blue solution, NR solution, RA, and TPA were also obtained from Sigma-Aldrich (Germany). DMSO and HBSS (Hanks' Balanced Salt Solution) were purchased from Merck (Germany). MTT was sourced from Alfa Aesar (Kandel, Germany). 6-OHDA hydrobromide (CAS: 636-00-0) was acquired from Sigma-Aldrich (Germany).
(§4) Cell counts were performed on a Neubauer chamber using a Nikon Eclipse TS100 microscope from Nikon (Japan), and plate readings (MTT reduction and NR uptake assays) were conducted on a BioTek Synergy HT plate reader from BioTek (USA). Tissue culture flasks (25 cm²) and tissue culture 48 -well plates were purchased from TPP (Switzerland), while 5-, 10-, and 25-mL serological pipettes were obtained from Nerbe-Plus (Germany). Throughout all procedures, SH-SY5Y cells were maintained in a 5% CO2 incubator from Heraeus (Germany) at 37 °C. Cells were trypsinized after reaching confluence before experiments or for general culture maintenance.
(§5) Human neuroblastoma SH-SY5Y cells were maintained in complete DMEM medium supplemented with 10% (v/v) FBS and 1% (v/v) antibiotics (100 units/mL penicillin and 100 μg/mL streptomycin), at 37 °C in a 5% CO2 incubator throughout all procedures. […] After trypsin inactivation, cells were counted using a 0.4% (w/v) trypan blue solution and an optical microscope. […]
(Tetrazolium assays rely on reduction of a dye to a coloured formazan, in cell work by metabolically active cells.)

Series [2] has the same test system. The series is described as follows: Neutral red (NR) uptake assay in differentiated SH-SY5Y cells. It counts as cell-based, human. Particulars: 125 μM, 48 h; positive control for cytotoxicity. How it is done: as §1, §2, §3, §4, §5
Series [3] is described as follows: MTT reduction assay in differentiated SH-SY5Y cells. It counts as cell-based, human. Particulars: human. The method, then:
as §1, §2, §3, §4, §5

Series [4] concerns dopamine receptors isolated from bovine caudate tissue. More on the design: method as in Johnson and co-workers. Particulars: 100 nM; ref Johnson and co-workers; cited from earlier work.
The nature of series [5]: Neutral red (NR) uptake assay in differentiated SH-SY5Y cells. The class given is cell-based, human. As to conditions: human. How it is done:
as §1, §2, §3, §4, §5

The next series deals with human D2R (Homo sapiens, UniProt P14416). The series is described as follows: D2R functional assay in the absence of dopamine (intrinsic agonist activity). It counts as cell-based. How it is done: To exclude intrinsic agonist activity and validate the PAM mechanism of the best-performing MIF-1 derivatives 1 and 9, the same experiments were conducted in the absence of dopamine and compared to the concentration–response curve of dopamine alone (Figure ).
3 Concentration–response for compounds 1 and 9 obtained at human D2R in the absence of dopamine (DA), with the DA concentration–response curve included for reference. Data are presented as the mean ± standard deviation from three independent experiments.

Sequence of human D2R (P14416 whole entry): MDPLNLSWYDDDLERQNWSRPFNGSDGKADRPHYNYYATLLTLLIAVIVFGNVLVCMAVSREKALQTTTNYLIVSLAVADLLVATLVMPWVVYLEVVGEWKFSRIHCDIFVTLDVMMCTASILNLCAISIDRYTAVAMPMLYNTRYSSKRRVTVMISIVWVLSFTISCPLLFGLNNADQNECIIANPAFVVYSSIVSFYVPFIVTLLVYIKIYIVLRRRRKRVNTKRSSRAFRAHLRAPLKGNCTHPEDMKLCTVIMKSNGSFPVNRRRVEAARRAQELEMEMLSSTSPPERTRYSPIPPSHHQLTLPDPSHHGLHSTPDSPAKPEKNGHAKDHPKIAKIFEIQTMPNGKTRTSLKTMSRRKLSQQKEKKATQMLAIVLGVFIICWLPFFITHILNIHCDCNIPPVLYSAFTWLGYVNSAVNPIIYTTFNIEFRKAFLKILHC

As to `NCCc1cc(O)c(O)cc1O` [6-OHDA, 6-hydroxydopamine, reference compound], the “MTT reduction, percentage relative to control (PBS)” value in series [1] stood at 45.64 ± 11.85%. Also, in series [2], the “NR uptake, percentage relative to control (PBS)” value is given as 57.26 ± 7.41%.

By viability is commonly meant a read-out of living cells in per cent, often relative to untreated cells. For the compound `CC(C)C[C@H](NC(=O)[C@@H]1CCCN1)C(=O)NCC(N)=O` [MIF-1, L-prolyl-L-leucylglycinamide, reference compound] (H-Pro-Leu-Gly-NH2), the viability at 48 h, 100 µM is 105 ± 6% in series [3] and 97.8 ± 8.56% in series [5]. Besides, the “enhancement of specific binding of [3H]-ADTN (maximal effect)” value in series [4] was 46.2 ± 13.4%.

On to `CC(C)C[C@H](NC(=O)[C@@H]1CCCCN1)C(=O)NCC(N)=O` [compound 1, L-pipecolyl-L-leucylglycinamide] (HELM PEPTIDE1{[O=C([C@@H]1CCCCN1)[*:2]].L.G.[am]}$$$$V2.0), for which the viability at 48 h, 100 µM in series [3] came out at 105 ± 7.1%; in series [5] it was 102 ± 3.48%. Also, the intrinsic agonistic effect entry at human D2R was “no intrinsic agonistic effect”. Moreover, the “enhancement of specific binding of [3H]-ADTN (maximal effect)” value in series [4] is reported as 58.7 ± 9.3%.

For the compound `COC(=O)CNC(=O)[C@H](CC(C)C)NC(=O)[C@@H]1CCCCN1` [compound 9, methyl L-pipecolyl-L-leucylglycinate] (HELM PEPTIDE1{[O=C([C@@H]1CCCCN1)[*:2]].L.G.[CO[*:1]]}$$$$V2.0), the viability at 48 h, 100 µM is 105 ± 6.8% in series [3] and 100 ± 2.09% in series [5]. Also, the intrinsic agonistic effect entry on human D2R is listed as “no intrinsic agonistic effect”.
